Read-outs that look alike come from different tables or passages of the source.
Test system: Mycosphaerella graminicola; Anamorph: Septoria tritici; Bayer Code SEPTTR
Assay: Leaf blotch of wheat, foliar fungicide treatment, one day protectant (1DP) or three day curative (3DC)
Format: in vivo, Septoria tritici on wheat plants (variety Yuma)
Settings: Zymoseptoria tritici; for pest or weed control at 25 ppm / pest or weed control at 100 ppm: rating of percent disease control; for pest or weed control at 50 ppm / pest or weed control at 200 ppm: % disease control rating, one day protectant
[1] = 24 h, one day protectant (1DP), read-out: SETTTR 1DP 25 ppm
[2] = 24 h, one day protectant (1DP), read-out: SEPTTR 1DP 100 ppm
[3] = 72 h, three day curative (3DC), read-out: SEPTTR 3DC 25 ppm
[4] = 72 h, three day curative (3DC), read-out: SEPTTR 3DC 100 ppm

SMILES | pest or weed control at 25 ppm [1] [%] | pest or weed control at 100 ppm [2] [%] | pest or weed control at 25 ppm [3] [%] | pest or weed control at 100 ppm [4] [%] | pest or weed control at 50 ppm (24 h) [%] | pest or weed control at 200 ppm (24 h) [%]
Cc1nc(C)c(COc2ncc(F)c(N)n2)s1 [Compound 772] | 76 to 100 | 76 to 100 | 76 to 100 | 76 to 100 | – | –
COc1cccc(COc2ncc(F)c(NC(=O)Cc3ccccc3)n2)c1 [Compound 773] | 26 to 50 | 76 to 100 | 0 to 25 | 0 to 25 | – | –
CCCCCCOc1ncc(F)c(NC(=O)Nc2ccsc2)n1 [Compound 774] | 0 to 25 | 0 to 25 | 0 to 25 | 0 to 25 | – | –
CC(C)(C)NNc1nc(OCc2ccc(F)cc2)ncc1F [Compound 775] | 0 to 25 | 0 to 25 | 0 to 25 | 0 to 25 | – | –
CCCNC(=O)Nc1nc(OCc2cccs2)ncc1F [Compound 776] | 0 to 25 | 0 to 25 | 0 to 25 | 0 to 25 | – | –
Cc1ccc(COc2ncc(F)c(NC(=S)Nc3ccccc3F)n2)cc1 [Compound 778] | 76 to 100 | 76 to 100 | 76 to 100 | 76 to 100 | – | –
OCNc1nc(OCc2cccc(F)c2)ncc1F [Compound 780] | 76 to 100 | 76 to 100 | 76 to 100 | 76 to 100 | – | –
N#Cc1cccc(COc2ncc(F)c(NC(=S)Nc3ccccc3F)n2)c1 [Compound 781] | 0 to 25 | 51 to 75 | 0 to 25 | 26 to 50 | – | –
CCOC(=O)COC(=O)Nc1nc(OCc2cccc(C#N)c2)ncc1F [Compound 782] | 0 to 25 | 26 to 50 | 26 to 50 | 76 to 100 | – | –
CC(C)Oc1ccc(COc2ncc(F)c(N)n2)cc1 [Compound 783] | 76 to 100 | 76 to 100 | 76 to 100 | 76 to 100 | – | –
CNc1nc(OCc2ccc(F)cc2)ncc1F [Compound 784] | 0 to 25 | 0 to 25 | 0 to 25 | 0 to 25 | – | –
COc1cc(F)cc(F)c1COc1ncc(F)c(N)n1 [Compound 787] | 76 to 100 | 76 to 100 | 76 to 100 | 76 to 100 | – | –
CC(C)COC(=O)Oc1ncc(F)c(/N=C/N(C)C)n1 [Compound 788] | 76 to 100 | 76 to 100 | 76 to 100 | 76 to 100 | – | –
CN(C)/C=N/c1nc(OC(=O)OCc2ccccc2Cl)ncc1F [Compound 789] | 76 to 100 | 76 to 100 | 76 to 100 | 76 to 100 | – | –
CCCCOc1cccc(C(C)Oc2ncc(F)c(N)n2)c1 (stereo not shown) [Compound 790] | 76 to 100 | 76 to 100 | 76 to 100 | 76 to 100 | – | –
O=C(Cc1ccccc1)Nc1nc(OCc2ccccc2)ncc1F [Compound 792] | 76 to 100 | 76 to 100 | 26 to 50 | 51 to 75 | – | –
CC(C)C(=O)NNc1nc(OCc2ccc(F)cc2)ncc1F [Compound 793] | 0 to 25 | 0 to 25 | 0 to 25 | 0 to 25 | – | –
COc1cccc(COc2ncc(F)c(N)n2)c1F [Compound 794] | 76 to 100 | 76 to 100 | 76 to 100 | 76 to 100 | – | –
Fc1ccc(COc2ncc(F)c(/N=C/N3CCOCC3)n2)cc1 [Compound 795] | 76 to 100 | 76 to 100 | 76 to 100 | 76 to 100 | – | –

SMILES | pest or weed control at 25 ppm [1] [%] | pest or weed control at 100 ppm [2] [%] | pest or weed control at 25 ppm [3] [%] | pest or weed control at 100 ppm [4] [%] | pest or weed control at 50 ppm (24 h) [%] | pest or weed control at 200 ppm (24 h) [%]
COc1c(F)cc(F)cc1COc1ncc(F)c(N)n1 [Compound 796] | 76 to 100 | 76 to 100 | 76 to 100 | 76 to 100 | – | –
COc1ccccc1COc1ncc(F)c(NC(=S)NCc2ccccc2F)n1 [Compound 797] | 51 to 75 | 76 to 100 | 26 to 50 | 76 to 100 | – | –
CC(Oc1ncc(F)c(N)n1)c1cccc(I)c1 (stereo not shown) [Compound 798] | 76 to 100 | 76 to 100 | 76 to 100 | 76 to 100 | – | –
O=C(Nc1ccccc1F)Nc1nc(OCc2cccs2)ncc1F [Compound 799] | 0 to 25 | 0 to 25 | 0 to 25 | 0 to 25 | – | –
CC(C)(C)OCCOc1ncc(F)c(N)n1 [Compound 802] | 0 to 25 | 0 to 25 | 0 to 25 | 0 to 25 | – | –
Fc1ccccc1CNc1nc(OC2CCCCC2)ncc1F [Compound 803] | – | – | – | – | 0 to 25 | 51 to 75
Fc1ccc(COc2ncc(F)c(NCCc3ccccc3)n2)cc1 [Compound 805] | – | – | – | – | 51 to 75 | 76 to 100
Fc1cnc(OCc2cccc(C(F)(F)F)c2)nc1NCc1cccs1 [Compound 806] | – | – | – | – | – | 76 to 100
Fc1cnc(OCc2ccccc2Cl)nc1NC1CC1 [Compound 807] | – | – | – | – | – | 76 to 100
Fc1cnc(OCc2ccc(Cl)cc2)nc1NCc1cccs1 [Compound 808] | – | – | – | – | 76 to 100 | 76 to 100
Fc1ccccc1CNc1nc(OCc2ccccc2F)ncc1F [Compound 809] | – | – | – | – | 51 to 75 | 76 to 100
Fc1cnc(OCc2ccccc2Cl)nc1NCc1cccs1 [Compound 810] | – | – | – | – | – | 76 to 100
Fc1cnc(OCc2ccc(C(F)(F)F)cc2)nc1NCc1ccc(Cl)cc1 [Compound 811] | – | – | – | – | 76 to 100 | 76 to 100
COc1cccc(COc2ncc(F)c(NC3CC3)n2)c1 [Compound 812] | – | – | – | – | – | 76 to 100
Fc1cnc(OCc2cccc(C(F)(F)F)c2)nc1NCc1ccc(Cl)cc1 [Compound 813] | – | – | – | – | 76 to 100 | 76 to 100
Fc1cnc(OCc2cc(Cl)cc(Cl)c2)nc1NCc1cccs1 [Compound 814] | – | – | – | – | – | 76 to 100
CC(=O)Nc1nc(OCc2cccc(Oc3ccccc3)c2)ncc1F [Compound 815] | – | – | – | – | 76 to 100 | 76 to 100
Fc1cnc(OCc2ccc(Cl)cc2)nc1NCc1ccc(Cl)cc1 [Compound 816] | – | – | – | – | 76 to 100 | 76 to 100
Fc1ccccc1CNc1nc(OCc2ccco2)ncc1F [Compound 817] | – | – | – | – | 26 to 50 | 76 to 100

SMILES | pest or weed control at 25 ppm [1] [%] | pest or weed control at 100 ppm [2] [%] | pest or weed control at 25 ppm [3] [%] | pest or weed control at 100 ppm [4] [%] | pest or weed control at 50 ppm (24 h) [%] | pest or weed control at 200 ppm (24 h) [%]
Cc1cnc(CNc2nc(OCC(F)(F)F)ncc2F)cn1 [Compound 818] | – | – | – | – | 0 to 25 | 0 to 25
Fc1cnc(OCc2ccc(C(F)(F)F)cc2)nc1NC1CC1 [Compound 819] | – | – | – | – | – | 76 to 100
Fc1cccc(COc2ncc(F)c(NCc3ccc(Cl)cc3)n2)c1 [Compound 820] | – | – | – | – | 26 to 50 | 76 to 100
COc1ccccc1COc1ncc(F)c(NC2CC2)n1 [Compound 821] | – | – | – | – | – | 76 to 100
Cc1cnc(CNc2nc(OCc3cccs3)ncc2F)cn1 [Compound 822] | – | – | – | – | 26 to 50 | 76 to 100
COc1ccc(COc2ncc(F)c(NC3CC3)n2)cc1 [Compound 823] | – | – | – | – | – | 76 to 100
Fc1cccc(COc2ncc(F)c(NCc3ccccc3F)n2)c1 [Compound 824] | – | – | – | – | 76 to 100 | 76 to 100
Fc1ccc(COc2ncc(F)c(NCc3ccccc3F)n2)cc1F [Compound 825] | – | – | – | – | 51 to 75 | 76 to 100
Fc1cnc(OCc2cccc(C(F)(F)F)c2)nc1NC1CC1 [Compound 826] | – | – | – | – | – | 76 to 100
Fc1cnc(OCc2ccco2)nc1NCCc1ccccc1 [Compound 827] | – | – | – | – | 0 to 25 | 26 to 50
Fc1cnc(OCCc2ccccc2)nc1N1CCOCC1 [Compound 828] | – | – | – | – | 0 to 25 | 0 to 25
Fc1cnc(OCc2ccc(OC(F)(F)F)cc2)nc1NCc1ccc(Cl)cc1 [Compound 829] | – | – | – | – | 26 to 50 | 76 to 100
Fc1cnc(OCC(F)(F)F)nc1NCc1cccs1 [Compound 830] | – | – | – | – | 0 to 25 | 0 to 25
Fc1cnc(OCc2cccs2)nc1NCc1cccs1 [Compound 831] | – | – | – | – | 51 to 75 | 76 to 100
O=c1nc(NCc2ccccc2F)c(F)c[nH]1 [Compound 832] | – | – | – | – | 0 to 25 | 0 to 25
Fc1ccc(COc2ncc(F)c(NCC(F)(F)F)n2)cc1 [Compound 833] | – | – | – | – | 26 to 50 | 51 to 75
Fc1ccc(COc2ncc(F)c(NC3CC3)n2)c(F)c1 [Compound 834] | – | – | – | – | – | 76 to 100
Fc1cnc(OCc2c(Cl)cccc2Cl)nc1NCc1cccs1 [Compound 835] | – | – | – | – | – | 76 to 100
Cc1ccc(COc2ncc(F)c(N3CCOCC3)n2)cc1 [Compound 836] | – | – | – | – | 51 to 75 | 76 to 100
